One data set in a line: CHI Log D procedure. It counts as physicochemical.
Data set [1] concerns the target T1, full-length beta-Catenin (Uniprot ID P35222) (Homo sapiens, UniProt P35222).
T1 construct: 10 nM full-length beta-Catenin (Uniprot ID P35222)
T1 sequence (P35222 1-781): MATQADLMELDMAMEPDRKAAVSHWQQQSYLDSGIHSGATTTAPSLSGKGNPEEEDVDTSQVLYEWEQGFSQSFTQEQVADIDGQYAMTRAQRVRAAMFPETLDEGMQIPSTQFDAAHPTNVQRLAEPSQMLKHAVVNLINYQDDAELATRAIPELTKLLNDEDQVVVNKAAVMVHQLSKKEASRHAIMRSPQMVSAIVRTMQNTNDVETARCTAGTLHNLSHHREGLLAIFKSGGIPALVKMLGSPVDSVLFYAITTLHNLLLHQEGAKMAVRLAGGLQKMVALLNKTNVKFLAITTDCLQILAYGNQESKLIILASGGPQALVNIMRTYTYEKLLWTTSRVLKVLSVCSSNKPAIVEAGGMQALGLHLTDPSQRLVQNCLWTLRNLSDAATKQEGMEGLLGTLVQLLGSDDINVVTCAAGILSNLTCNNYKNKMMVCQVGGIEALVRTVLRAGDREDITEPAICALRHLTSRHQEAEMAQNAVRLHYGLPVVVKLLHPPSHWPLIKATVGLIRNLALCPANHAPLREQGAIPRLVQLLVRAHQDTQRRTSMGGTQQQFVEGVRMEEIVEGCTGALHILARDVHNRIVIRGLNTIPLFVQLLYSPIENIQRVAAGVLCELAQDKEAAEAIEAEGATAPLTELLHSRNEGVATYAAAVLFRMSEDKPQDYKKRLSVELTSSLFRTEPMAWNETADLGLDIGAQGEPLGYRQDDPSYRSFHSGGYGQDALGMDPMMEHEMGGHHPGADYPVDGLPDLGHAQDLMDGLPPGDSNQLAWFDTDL
Nature of the data set: Fluorescence polarization IC50 (beta-catenin / 5FAM-TCF4 10-53 competition). It counts as binding. For orientation: In fluorescence polarisation assays a small probe gives low polarisation when free and higher when bound to something large.

Data set [2] addresses T2, beta-catenin/TCF4 engagement (Homo sapiens, UniProt P35222).
T2 construct: expressed in transfected cells; host or cells: HEK293
T2 sequence (P35222 1-781): T1 sequence (P35222 1-781)
Nature of the data set: Nano-BRET target engagement assay (B-cat-Halo & TCF4-Luc in HEK293 cells). The class given is cell-based. As to conditions: for inhibition at 10 µM: HEK293, @ 10 uM, read-out: NanoBRET % inh @ 10 uM. A general note: BRET reads energy transfer from a luciferase to a nearby fluorophore.

The mark [3] stands for this setting: fluorescence polarization, read-out: beta-Catenin FP IC50.
[4] abbreviates: fluorescence polarization, beta-catenin, read-out: FP EC50.

Where two headings read alike, the source gives them in different places.

`CC[C@H](C)[C@@H]1NC(=O)[C@H](CC(=O)O)NC(=O)[C@]2(CC=CCCCC3(CCCC=CCCCCCC[C@@](C)(C(=O)N[C@@H](Cc4ccccc4)C(=O)N[C@@H](Cc4csc5ccccc45)C(=O)N[C@@H](Cc4c[nH]cn4)C(N)=O)NC(=O)[C@H](CC(N)=O)NC(=O)[C@H](Cc4ccccc4)NC(=O)[C@H](C)NC(=O)[C@H](C)NC(=O)[C@H](CC(=O)O)NC(=O)[C@H](CC(=O)O)NC3=O)NC1=O)CCCN2C(C)=O` (stereo partly drawn) [I-470, Ac-PL3-Asp-Ile-B5-Asp-Asp-Ala-Ala-Phe-Asn-S8-Phe-BztA-His-NH2]: in the data set “CHI Log D procedure” (pH 7.4), the “CHI Log D” value came out at 2.394. Moreover, the IC50 in data set [1] (setting [3]) and in data set [1] (read-out: FP EC50) was 11 nM in each case. For the same molecule, the inhibition at 10 µM in data set [2] turned out to be 14.1%.
For `CC(=O)N1CCC[C@]12CC=CCCCC1(CCCC=CCCCCCC[C@@](C)(C(=O)N[C@@H](Cc3ccccc3)C(=O)N[C@@H](Cc3csc4ccccc34)C(=O)N[C@@H](CC(N)=O)C(N)=O)NC(=O)[C@H](CC(N)=O)NC(=O)[C@H](Cc3ccccc3)NC(=O)[C@H](C)NC(=O)[C@H](C)NC(=O)[C@H](CCC(=O)O)NC(=O)[C@H](CC(=O)O)NC1=O)NC(=O)[C@H](CC(C)C)NC(=O)[C@H](CC(=O)O)NC2=O` (stereo partly drawn) [I-752, Ac-PL3-Asp-Leu-B5-Asp-Glu-Ala-Ala-Phe-Asn-S8-Phe-BztA-Asn-NH2], the “CHI Log D” value in the data set “CHI Log D procedure” (pH 7.4) was determined as 2.419. The IC50 in data set [1] (setting [3]) was 16 nM; in data set [1] (read-out: FP EC50) it was 16 nM; in data set [2] (Abs IC50, read-out: NanoBRET Abs IC50), 9900 nM; in data set [2] (absolute IC50, read-out: NanoBRET Abs IC50) it was 9900 nM. The inhibition at 10 µM in data set [2] stood at 53%.
A word on the logD: it is the decadic logarithm of the distribution of all forms, ionised or not, between an organic phase and buffer at a given pH. For the molecule `CC(=O)N1CCC[C@]12CC=CCCCC1(CCCC=CCCCOC(=O)N3CC[C@@](C(=O)N[C@@H](Cc4ccsc4)C(=O)N[C@@H](Cc4csc5ccccc45)C(=O)N[C@@H](CCC(N)=O)C(N)=O)(C3)NC(=O)[C@H](CC(N)=O)NC(=O)[C@H](Cc3ccccc3)NC(=O)[C@H](C)NC(=O)[C@H](C)NC(=O)[C@H](CN(CC(=O)O)CC(F)(F)F)NC(=O)[C@H](CC(=O)O)NC1=O)NC(=O)[C@H](CC(C)(C)C)NC(=O)[C@H](CC(=O)O)NC2=O` (stereo partly drawn) [I-761, Ac-PL3-Asp-Npg-B5-Asp-TfeGA-Ala-Ala-Phe-Asn-PyrS2-3Thi-BztA-Gln-NH2], in “CHI Log D procedure” (pH 7.4), the “CHI Log D” value was 2.207. The molecule also returned a logD in the data set “CHI Log D procedure” (pH 7.4) of 2.2. The IC50 in data set [1] (read-out: bCat FP IC50) was below 5 nM; in data set [1] (read-out: beta-Catenin FP IC50), 5 nM; in data set [2] (read-out: NanoBRET IC50), 5000 nM. Also, the inhibition at 10 µM in data set [2] turned out to be 63.4%.
Consider `CC(=O)N1CCC[C@]12CC=CCCCC1(CCCC=CCCCCOC(=O)N3CC[C@@](C(=O)N[C@@H](Cc4ccsc4)C(=O)N[C@@H](Cc4csc5ccccc45)C(=O)N[C@@H](CCC(N)=O)C(N)=O)(C3)NC(=O)[C@H](CC(N)=O)NC(=O)[C@H](Cc3ccccc3)NC(=O)[C@H](C)NC(=O)[C@H](C)NC(=O)[C@H](CC(=O)O)NC(=O)[C@H](CC(=O)O)NC1=O)NC(=O)[C@H](CC(C)(C)C)NC(=O)[C@H](CC(=O)O)NC2=O` (stereo partly drawn) [I-768, Ac-PL3-Asp-Npg-B5-Asp-Asp-Ala-Ala-Phe-Asn-PyrS3-3Thi-BztA-Gln-NH2], for which, in the data set “CHI Log D procedure” (pH 7.4), the “CHI Log D” value is 2.043. Also, the IC50 was 9 nM in data set [1] (read-out: FP EC50), 9 nM in data set [1] (read-out: beta-Catenin FP IC50) and 31400 nM in data set [2] (read-out: NanoBRET Abs IC50).
For the molecule `CC(=O)N1CCC[C@]12CC=CCCCC1(CCCC=CCCCOC(=O)N3CC[C@@](C(=O)N[C@@H](Cc4ccsc4)C(=O)N[C@@H](Cc4csc5ccccc45)C(=O)N[C@@H](CCC(N)=O)C(N)=O)(C3)NC(=O)[C@H](CO)NC(=O)[C@H](Cc3ccccc3)NC(=O)[C@H](C)NC(=O)[C@H](C)NC(=O)[C@H](Cc3cccc(C(=O)O)c3)NC(=O)[C@H](CC(=O)O)NC1=O)NC(=O)[C@H](CC(C)(C)C)NC(=O)[C@H](CC(=O)O)NC2=O` (stereo partly drawn) [I-979, Ac-PL3-Asp-Npg-B5-Asp-3COOHF-Ala-Ala-Phe-Ser-PyrS2-3Thi-BztA-Gln-NH2], the “CHI Log D” value in “CHI Log D procedure” (pH 7.4) amounted to 1.809. Further, the IC50 in data set [1] (setting [4]) and in data set [1] (read-out: beta-Catenin FP IC50) was 240 nM each time.
`CC(=O)N1CCC[C@]12CC=CCCCC1(CCCC=CCCCOC(=O)N3CC[C@@](C(=O)N[C@@H](Cc4ccccc4Cl)C(=O)N[C@@H](Cc4csc5ccccc45)C(=O)N[C@@H](CO)C(N)=O)(C3)NC(=O)[C@H](CC(C)C)NC(=O)[C@H](Cc3ccccc3)NC(=O)[C@H](C)NC(=O)[C@H](C)NC(=O)[C@H](CC(=O)O)NC(=O)[C@H](CC(=O)O)NC1=O)NC(=O)[C@H](CC(C)(C)C)NC(=O)[C@H](CC(=O)O)NC2=O` (stereo partly drawn) [I-1065, Ac-PL3-Asp-Npg-B5-Asp-Asp-Ala-Ala-Phe-Leu-PyrS2-2C1F-BztA-Ser-NH2]: in “CHI Log D procedure” (pH 7.4), the “CHI Log D” value is 2.044. The IC50 in data set [1] (setting [4]) and in data set [1] (read-out: beta-Catenin FP IC50) was 520 nM in each case.
For `CC(=O)N1CCC[C@]12CC=CCCCC1(CCCC=CCCCOC(=O)N3CC[C@@](C(=O)N[C@@H](Cc4ccccc4Cl)C(=O)N[C@@H](Cc4csc5ccccc45)C(=O)N[C@@H](CO)C(N)=O)(C3)NC(=O)[C@H](CC(C)C)NC(=O)[C@H](Cc3ccccc3)NC(=O)[C@H](C)NC(=O)[C@H](C)NC(=O)[C@H](CCC(=O)O)NC(=O)[C@H](CC(=O)O)NC1=O)NC(=O)[C@H](CC(C)(C)C)NC(=O)[C@H](CC(=O)O)NC2=O` (stereo partly drawn) [I-1067, Ac-PL3-Asp-Npg-B5-Asp-Glu-Ala-Ala-Phe-Leu-PyrS2-2C1F-BztA-Ser-NH2], the “CHI Log D” value in the data set “CHI Log D procedure” (pH 7.4) stood at 2.147. The IC50 in data set [1] (setting [4]) and in data set [1] (read-out: beta-Catenin FP IC50) was 517 nM throughout.
`CC(=O)N1CCC[C@]12CC=CCCCC1(CCCC=CCCCOC(=O)N3CC[C@@](C(=O)N[C@@H](Cc4ccccc4Cl)C(=O)N[C@@H](Cc4csc5ccccc45)C(=O)N[C@@H](CCC(N)=O)C(N)=O)(C3)NC(=O)[C@H](CC(C)C)NC(=O)[C@H](Cc3ccccc3)NC(=O)[C@H](C)NC(=O)[C@H](C)NC(=O)[C@H](CC(=O)O)NC(=O)[C@H](CC(=O)O)NC1=O)NC(=O)[C@H](CC1CCCCC1)NC(=O)[C@H](CC(=O)O)NC2=O` (stereo partly drawn) [I-1076, Ac-PL3-Asp-Cha-B5-Asp-Asp-Ala-Ala-Phe-Leu-PyrS2-2C1F-BztA-Gln-NH2]: in “CHI Log D procedure” (pH 7.4), the “CHI Log D” value turned out to be 2.049. Besides, the IC50 in data set [1] (setting [4]) and in data set [1] (read-out: beta-Catenin FP IC50) was 448 nM in each case.
On to `CC(=O)N1CCC[C@]12CC=CCCCC1(CCCC=CCCCCCC[C@@](C)(C(=O)N[C@@H](Cc3ccccc3Cl)C(=O)N[C@@H](Cc3csc4ccccc34)C(=O)N[C@@H](C(N)=O)[C@H](C)O)NC(=O)[C@H]([C@@H](C)O)NC(=O)[C@H](Cc3ccccc3)NC(=O)[C@H](C)NC(=O)[C@H](C)NC(=O)[C@H](CCC(=O)O)NC(=O)[C@H](CC(=O)O)NC1=O)NC(=O)[C@H](CC(C)(C)C)NC(=O)[C@H](CC(=O)O)NC2=O` (stereo partly drawn) [I-1094, Ac-PL3-Asp-Npg-B5-Asp-Glu-Ala-Ala-Phe-Thr-S8-2C1F-BztA-dThr-NH2], for which the “CHI Log D” value in the data set “CHI Log D procedure” (pH 7.4) turned out to be 3.271. For the same molecule, the IC50 in data set [1] (setting [4]) and in data set [1] (read-out: beta-Catenin FP IC50) was 46 nM in each case.
The term chromatographic logD denotes a lipophilicity value derived from retention on a column. High values mean higher lipophilicity, low ones lower lipophilicity. Consider `CC(=O)N1CCC[C@]12CC=CCCCC1(CCCC=CCCCOC(=O)N3CC[C@@](C(=O)N[C@@H](Cc4ccsc4)C(=O)N[C@@H](Cc4csc5ccccc45)C(=O)N[C@@H](CCC(N)=O)C(N)=O)(C3)NC(=O)[C@H](CC(N)=O)NC(=O)[C@H](Cc3ccccc3)NC(=O)[C@H](C)NC(=O)[C@H](C)NC(=O)[C@H](CC(=O)O)NC(=O)[C@H](CC(=O)O)NC1=O)NC(=O)[C@H](CC(C)(C)C)NC(=O)[C@H](CC(=O)O)N(C)C2=O` (stereo partly drawn) [I-1160, Ac-PL3-NMeD-Npg-B5-Asp-Asp-Ala-Ala-Phe-Asn-PyrS2-3Thi-BztA-Gln-NH2], for which, in “CHI Log D procedure” (pH 7.4, CHI Log D), the chromatographic logD turned out to be 1.41. Moreover, the IC50 in data set [1] (setting [3]) came to 575 nM.

(Values after patent US20240116985A1, “STAPLED PEPTIDES AND METHODS THEREOF” (priority 2020, published 2024).)
